The target of experiment [1] is T1, Trx-1/TrxR (Homo sapiens, UniProt P10599+Q16881).
T1 sequence (P10599 1-105): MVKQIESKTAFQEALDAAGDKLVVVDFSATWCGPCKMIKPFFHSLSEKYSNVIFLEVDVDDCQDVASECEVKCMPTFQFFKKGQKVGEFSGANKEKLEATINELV
T1 sequence (Q16881 151-649 limits assumed): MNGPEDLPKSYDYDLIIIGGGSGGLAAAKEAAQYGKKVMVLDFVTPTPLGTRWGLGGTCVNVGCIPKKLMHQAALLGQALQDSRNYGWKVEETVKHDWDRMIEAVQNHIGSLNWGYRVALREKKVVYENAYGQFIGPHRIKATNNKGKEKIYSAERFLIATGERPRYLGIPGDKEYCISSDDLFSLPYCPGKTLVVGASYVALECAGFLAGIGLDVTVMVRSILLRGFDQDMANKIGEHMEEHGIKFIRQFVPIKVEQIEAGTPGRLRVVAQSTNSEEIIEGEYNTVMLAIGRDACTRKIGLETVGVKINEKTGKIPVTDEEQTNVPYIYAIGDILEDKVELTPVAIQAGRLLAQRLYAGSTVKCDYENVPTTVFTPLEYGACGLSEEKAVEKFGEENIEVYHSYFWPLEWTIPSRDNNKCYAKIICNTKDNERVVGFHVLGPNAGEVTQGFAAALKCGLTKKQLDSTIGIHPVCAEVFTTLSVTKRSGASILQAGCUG
As to conditions: read-out: IC 50 as Trx-1/TrxR inhibitor; cited from earlier work.

In another experiment the test system is 60 cell line panel. As to conditions: read-out: average GI 50; cited from earlier work.
Experiment [2] addresses T2, Trx-1/TrxR (Homo sapiens, UniProt P10599+Q16881).
T2 construct: Thioredoxin reductase was purified from human placenta as previously described; made in house
T2 sequence (P10599 1-105): T1 sequence (P10599 1-105)
T2 sequence (Q16881 1-499 isoform Q16881-5): T1 sequence (Q16881 151-649 limits assumed)
The experiment in a line: Trx-1/TrxR-dependent insulin reducing assay. The class given is biochemical. As to conditions: calculated from 5 concentrations (0.1 to 50 μM). The method, then:
Thioredoxin reductase was purified from human placenta as previously described (Oblong, J.E.; Gasdaska, P.Y.; Sherrill, K.; Powis,G. Biochemistry 1993, 32, 7271) and recombinant human Trx-1 was prepared as previously described (Gasdaska, P.Y.; Oblong, J.E.; Cotgreave, I.A.; Powis,G. Biochem.Biophys.Acta 1994 ,1218 ,292). TrxR and Trx-1/TrxR activities were measured spectrophotometrically using previously published microtiter plate colorimetric assays, based on the increase in absorbance at 405 nm which occurs as dithionitrobenzoic acid (DTNB) is reduced by the enzyme-mediated transfer of reducing equivalents from NADPH (Gasdaska et al., Biochem.Biophys.Acta 1994 ,1218,292). Trx-1/TrxR-dependent insulin reducing activity was measured in an incubation with a final volume of 60 μL containing 100 mM HEPES buffer, pH 7.2,5 mM EDTA (HE buffer),1 mM NADPH, […],0.8 μM Trx-1 and 2.5 mg/mL bovine insulin. Incubations were for 30 min at 37 ° C. in flat-bottom 96-well microtiter plates. The reaction was stopped by the addition of 100 μL of 6 M guanidine-HC1, 50 mM Tris, pH 8.0, and 10 mM DTNB, and the absorbance measured to 405 nm. TrxR activity was measured in a final incubation volume of 60 μL containing HE buffer, 10 mM DTNB, 1.0 μM TrxR and 1 mM NADPH. Compounds were diluted in HE buffer and added to the wells as 20 μL aliquots, and TrxR was then added,also as 20 μL aliquots in HE buffer. To start the reaction NADPH and DTNB were added as a 20 μL aliquot in HE buffer and the plate was moved to the plate reader which had been preheated to 37 ° C. The optical density at 405 nm was measured every 10 s and initial reaction rates were measured.

In the next experiment the test system is MDA-MB-231 cells. Kind of experiment: Antiproliferative assay, MDA-MB-231 cells. The class given is cell-based, human. The source says:
MDA-MB-231 cells, which were also derived from an adenocarcinoma of the breast, are less differentiated than the MCF-7 cells and fail to express functional p53 or estrogen receptors. This class of tumor cells contains important targets for new therapies, because loss of estrogen receptor expression is associated with poor patient prognosis. (Osborne, C. K. Breast Cane. Res. Treatm. 1998, 51, 227).
The inventors extrapolated to determine the IC50 for compounds with little cytotoxicity at 30,μM, the highest concentration tested. […] The enhanced sensitivity of MCF-7 to these compounds may be due to the expression of p53 in these cells.
(§1) Two compounds, 24 referred to herein as SR-4 and 27 referred to herein as SR-7, were examined in greater detail as to their effects on biological activity. The proliferation of MCF-7, MDA-MB-231 and SV40 transformed mouse embryonic fibroblasts was measured by a previously described colorimetric assay (Wipf P, Jung J-K, Rodriguez S, Lazo JS Synthesis and biological evaluation of Deoxypreussomerin A and Palmarumycin CP 1 and related naphthoquinone spiroketals. Tetrahedron 57:283-296, 2001 and Vogt A, Rice RL, Settineri CE, Yokokawa F, Yokokawa S, Wipf P and Lazo JS (1998) Disruption of insulin-like growth factor-I signaling and down-regulation of Cdc2 by SC-ααδ9, a novel small molecule antisignaling agent identified in a targeted array library. J Pharmacol Exptl Therap 287:806-813.). Briefly, the inventors seeded 4,000-6,000 cells per well in microtiter plates. Cells were allowed to attach overnight and treated with vehicle or compounds for 72 h, after which the medium was replaced with serum free medium containing 0.1% 3-[4,5-dimethylthiazol-2-yl]-2,5-diphenyl tetrazolium bromide. Plates were incubated for 3 hours in the dark and total cell number was determined by spectrophotometrically at 540 nm as previously described (Vogt A, Rice RL, Settineri CE, Yokokawa F, Yokokawa S, Wipf P and Lazo JS (1998) Disruption of insulin-like growth factor-1 signaling and down-regulation of Cdc2 by SC-ααδ9, a novel small molecule antisignaling agent identified in a targeted array library. J Pharmacol Exptl Therap 287:806-813.). […] Cells were maintained in RPMI 1640 medium containing 10% fetal bovine serum and the paclitaxel-resistant cells also contained 17 nM paclitaxel and 10 μM verapamil. Cells were plated (2,000/well) in 96-well plates and allowed to attach and grow for 72 hours (paclitaxel and verapamil were removed from resistant cell medium two weeks prior to this plating). They were then treated with 0.5% DMSO vehicle control or 0.08-10 μM compound. The number of cells was determined spectrophotometrically at 490 nm minus absorbance at 630 nm after exposure to 3-(4,5-dimethylthiazol-2-yl)-5-(3-carboxymethoxyphenyl)-2-(4-sulfophenyl)-2H-tetrazolium and N-methyldibenzopyurazine methyl sulfate.
Because of the potential importance of the tumor suppressor gene p53 and the estrogen receptor in controlling the cellular response to cytotoxic agents, the inventors also examined the sensitivity of MDA-MB-231 cells, which lack functional p53 and estrogen receptors. […] As might be expected, these p53 and estrogen receptor deficient cells were generally less sensitive to both natural products and analogs when compared to MCF-7 cells.

The test system of experiment [3] is mouse embryonic fibroblasts transformed with SV40 large T antigen. The experiment in a line: Proliferation of SV40 transformed mouse embryonic fibroblasts. The class given is cell-based. As to conditions: 10 μM. The method, then: as §1, with “Cells were plated (2,000/well) in 96-well plates and allowed to attach and grow for 72 hours (paclitaxel and verapamil were removed from resistant cell medium two weeks prior to this plating). They were then treated with 0.5% DMSO vehicle control or 0.08-10 μM compound.” left out, “sulfate. […]” for “sulfate.”

The next experiment relates to recombinant Cdc25. Kind of experiment: In vitro inhibition of recombinant Cdc25. The experiment is classed as biochemical. As to conditions: 30 μM, data not shown.
In a further experiment the target is VHR (Homo sapiens, UniProt P51452). Kind of experiment: In vitro inhibition of VHR. The class given is biochemical. As to conditions: 30 μM, data not shown.
Another experiment addresses T3, PTPIB (Homo sapiens, UniProt P18031).
T3 sequence (P18031 1-435): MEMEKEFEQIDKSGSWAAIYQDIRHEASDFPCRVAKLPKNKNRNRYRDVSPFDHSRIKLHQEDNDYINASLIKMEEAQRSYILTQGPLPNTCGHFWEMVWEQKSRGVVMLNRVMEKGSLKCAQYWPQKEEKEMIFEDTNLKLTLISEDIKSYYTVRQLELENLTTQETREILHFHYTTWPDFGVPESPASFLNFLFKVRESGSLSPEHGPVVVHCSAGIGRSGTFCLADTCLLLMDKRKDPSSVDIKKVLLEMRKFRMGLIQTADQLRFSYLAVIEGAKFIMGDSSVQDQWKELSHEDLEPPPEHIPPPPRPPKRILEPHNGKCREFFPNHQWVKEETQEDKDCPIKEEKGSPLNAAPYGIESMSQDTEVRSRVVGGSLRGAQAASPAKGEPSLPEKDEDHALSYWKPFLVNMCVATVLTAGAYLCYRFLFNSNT
The experiment in a line: In vitro inhibition of PTPIB. The class given is biochemical. As to conditions: 30 μM, data not shown.

For experiment [4], the target named is thioredoxin reductases (TrxR). As to conditions: read-out: K; (thioredoxin reductase inhibition); cited from earlier work.
For the next experiment, the system named is garden cress. As to conditions: cited from earlier work.

Where two headings read alike, the source gives them in different places.

Sequence of VHR (P51452 whole entry, species assumed): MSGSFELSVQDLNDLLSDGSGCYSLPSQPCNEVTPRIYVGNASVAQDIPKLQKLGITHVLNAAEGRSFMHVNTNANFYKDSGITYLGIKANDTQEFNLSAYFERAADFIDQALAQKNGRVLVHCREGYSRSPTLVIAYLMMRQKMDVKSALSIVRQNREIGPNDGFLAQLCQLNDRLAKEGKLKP

For the compound `C[C@H]1CO[C@H]2C3=C(C(=O)C=CC3=O)[C@@H]3OC(=O)[C@H]4CC[C@@H]5[C@H]1CC[C@@]52[C@@H]43` [NSC401005], the IC50 at Trx-1/TrxR [1] was 0.17 µM. In addition, the GI50 with 60 cell line panel is 21.5 µM.

With `CC/C=C/CCOc1cccc2c1C(=O)C=CC21Oc2cccc3cccc(c23)O1` [SR-4, (E)-8-(hex-3-enyloxy)-1-oxo-1,4-dihydronaphthalene-4-spiro-2′-naphto [1″,8″-de][1′,3′] dioxin], the IC50 was greater than 50 µM at Trx-1/TrxR [2] and 9.2 µM in the experiment with MDA-MB-231 cells (Homo sapiens, MDA-MB-231, 72 hours, read-out: MDA-MB-231 50% cell growth inhibition). Further, in the experiment with MDA-MB-231 cells, the “enhanced sensitivity of MDA-MB-231 cells compared to MCF-7 cells” value was “five fold enhanced sensitivity”. Further, in the experiment on MDA-MB-231 cells (72 hours, FIG. 23 Panel B), the “sensitivity of MDA-MB-231 cells, in words” value was “less active”. Besides, the “growth inhibition at highest concentration tested” value in [3] is on record as “no significant inhibition”. The “inhibition of recombinant Cdc25 activity” value in the experiment on recombinant Cdc25 is “no inhibition”. For the same compound, on VHR, the “inhibition of VHR activity” value is listed as “no inhibition”. At PTPIB, the “inhibition of PTPIB activity” value is given as “no inhibition”.

As to `CC(=O)OC[C@H]1O[C@@H]([S-])[C@H](OC(C)=O)[C@@H](OC(C)=O)[C@@H]1OC(C)=O.CCP(CC)CC.[Au+]` [auranofin], the Ki in experiment [4] is 0.004 µM.

As for `O=C1C=CC(=O)[C@@]23O[C@@]12C(=O)C(Cl)=CC31Oc2cccc3cccc(c23)O1` [palmarumycin C4], in the experiment on garden cress, the “germination and growth of garden cress” value is “completely inhibited germination and growth”.

Take `O=C1C=CC(=O)C23OC12C(=O)C1OC1C31Oc2cccc3cccc(c23)O1` (stereo not shown) [palmarumycin C9]: in the experiment on garden cress, the “germination and growth of garden cress” value was “completely inhibited germination and growth”.

The values are drawn from patent US6673937B2, “Syntheses and methods of use of new antimitotic agents” (The University of Pittsburgh, priority 2000, dated 2004).
